Laboratory results published in ChEMBL document CHEMBL1201862, “PubChem BioAssay data set” (2004).
Several values for one entry are separate records, joined by “and”; a condition that tells them apart may be missing. Identical values can stand only once.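 Where inhibition never reached the appropriate level, the endpoint shown equals the highest concentration tested. Otherwise, values were interpolated linearly from a five-concentration, 48-hour dose response in 96-well plates. GI50 is the concentration that inhibits growth by half.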 Activity calls are given as the source filed them. Rule as the data show it: active = GI50 up to about 1.1 µM and inactive = higher.

How the values were obtained:
Test in all cases: NCI tumour cell line growth inhibition, 48 h
NCI/ADR-RES = test system: NCI/ADR-RES
COLO 205 = test system: COLO 205
OVCAR-8 = test system: OVCAR-8
MDA-MB-231 = test system: MDA-MB-231
RXF 393 = test system: RXF 393
SK-MEL-28 = test system: SK-MEL-28
UACC-257 = test system: UACC-257
MOLT-4 = test system: MOLT-4
NCI-H23 = test system: NCI-H23
HOP-92 = test system: HOP-92
CCRF-CEM = test system: CCRF-CEM
SNB-19 = test system: SNB-19
SF-295 = test system: SF-295
PC-3 = test system: PC-3
A549 = test system: A549
UO-31 = test system: UO-31
M14 = test system: M14
SK-OV-3 = test system: SK-OV-3
OVCAR-3 = test system: OVCAR-3
NCI-H522 = test system: NCI-H522

Measured: GI50

N#Cc1c(N2CCCC2)nsc1Nc1ccccc1
inactive: NCI/ADR-RES > 100 µM | COLO 205 > 100 µM | OVCAR-8 > 100 µM | MDA-MB-231 > 100 µM | RXF 393 > 100 µM | SK-MEL-28 > 100 µM | UACC-257 > 100 µM | MOLT-4 > 100 µM | NCI-H23 > 100 µM | HOP-92 > 100 µM | CCRF-CEM > 100 µM | SNB-19 > 100 µM | SF-295 > 100 µM | PC-3 > 100 µM | A549 > 100 µM | UO-31 > 100 µM | M14 > 100 µM

C=C(C)COC(=O)COCC(=O)OCC(=C)C
inactive: NCI/ADR-RES > 100 µM | SK-OV-3 > 100 µM | COLO 205 > 100 µM | OVCAR-8 > 100 µM | MDA-MB-231 > 100 µM | RXF 393 > 100 µM | SK-MEL-28 > 100 µM | UACC-257 > 100 µM | MOLT-4 > 100 µM | NCI-H23 > 100 µM | HOP-92 > 100 µM | CCRF-CEM > 100 µM | SNB-19 > 100 µM | OVCAR-3 > 100 µM | SF-295 > 100 µM | PC-3 95.3 µM | A549 > 100 µM | UO-31 > 100 µM | M14 > 100 µM

c1ccc(CCCNc2nnnc3ccccc23)cc1
inactive: NCI/ADR-RES 39.4 µM | SK-OV-3 > 100 µM | COLO 205 62.5 µM | OVCAR-8 > 100 µM | MDA-MB-231 > 100 µM | RXF 393 43.4 µM | SK-MEL-28 > 100 µM | UACC-257 67.6 µM | MOLT-4 35.6 µM | NCI-H23 70.3 µM | NCI-H522 24.1 µM | HOP-92 > 100 µM | CCRF-CEM 73.8 µM | SNB-19 > 100 µM | OVCAR-3 > 100 µM | SF-295 44.2 µM | PC-3 > 100 µM | A549 63 µM | M14 > 100 µM

Cc1nc(C(N)=S)sc1C(=O)CC(=O)C(=O)Nc1nc2ccccc2[nH]1
inactive: NCI/ADR-RES > 100 µM | SK-OV-3 > 100 µM | OVCAR-8 > 100 µM | MDA-MB-231 > 100 µM | RXF 393 > 100 µM | SK-MEL-28 > 100 µM | UACC-257 > 100 µM | MOLT-4 > 100 µM | NCI-H23 > 100 µM | NCI-H522 > 100 µM | HOP-92 69.5 µM | OVCAR-3 > 100 µM | SF-295 > 100 µM | PC-3 > 100 µM | A549 > 100 µM | UO-31 > 100 µM | M14 > 100 µM

CCOC(=O)C1C(=O)CC(O)(OCC)C(C(=O)OCC)C1c1ccc(OC)cc1 (stereo unspecified)
inactive: NCI/ADR-RES > 100 µM | COLO 205 > 100 µM | OVCAR-8 > 100 µM | MDA-MB-231 > 100 µM | RXF 393 > 100 µM | SK-MEL-28 > 100 µM | UACC-257 > 100 µM | MOLT-4 > 100 µM | NCI-H23 > 100 µM | NCI-H522 > 100 µM | HOP-92 > 100 µM | CCRF-CEM > 100 µM | SNB-19 > 100 µM | OVCAR-3 > 100 µM | SF-295 > 100 µM | PC-3 > 100 µM | A549 > 100 µM | UO-31 > 100 µM

N#CC1(C#N)C2CCCCC23OC(=N)C1(C#N)C(c1ccccc1)O3 (stereo unspecified)
inactive: NCI/ADR-RES 41.5 µM | SK-OV-3 > 100 µM | COLO 205 13.4 µM | OVCAR-8 21 µM | MDA-MB-231 16.4 µM | RXF 393 31.8 µM | SK-MEL-28 > 10 µM | UACC-257 18 µM | MOLT-4 25.1 µM | NCI-H23 30.5 µM | HOP-92 15.5 µM | CCRF-CEM 5.24 µM | SNB-19 45.9 µM | OVCAR-3 13.6 µM | SF-295 69 µM | PC-3 21.4 µM | A549 > 100 µM | UO-31 34.8 µM | M14 12.7 µM

CC#CC#C/C=C1\C=CC2(OC=CC2OC(C)=O)O1 (stereo unspecified)
inactive: NCI/ADR-RES 28.6 µM | SK-OV-3 > 100 µM and > 89.1 µM | COLO 205 15 µM and 16.4 µM | OVCAR-8 31.4 µM and 17.9 µM | MDA-MB-231 17.8 µM | RXF 393 12.6 µM | NCI-H23 15 µM and 11 µM | HOP-92 20.6 µM and 22.3 µM | CCRF-CEM 8.41 µM and 14 µM | SNB-19 > 100 µM and > 82.2 µM | OVCAR-3 32.2 µM | SF-295 47.8 µM and 34.3 µM | PC-3 28.2 µM | A549 35.2 µM and 32.7 µM | UO-31 15.5 µM and 18.4 µM | M14 29.8 µM and 18.4 µM

COc1ccc(C(O)c2ccccn2)cc1 (stereo unspecified)
inactive: NCI/ADR-RES > 100 µM | SK-OV-3 > 100 µM | COLO 205 > 100 µM | OVCAR-8 > 100 µM | MDA-MB-231 > 100 µM | RXF 393 > 100 µM | SK-MEL-28 > 100 µM | UACC-257 > 100 µM | MOLT-4 > 100 µM | NCI-H23 > 100 µM | NCI-H522 > 100 µM | HOP-92 > 100 µM | SNB-19 > 100 µM | OVCAR-3 > 100 µM | SF-295 > 100 µM | PC-3 > 100 µM | A549 > 100 µM | M14 > 100 µM

O=C(Cn1c(=O)oc2ccc(C(=O)c3ccc(F)cc3)cc21)c1ccccc1
inactive: NCI/ADR-RES > 100 µM | SK-OV-3 > 100 µM | COLO 205 66.2 µM | OVCAR-8 > 100 µM | MDA-MB-231 > 100 µM | RXF 393 > 100 µM | SK-MEL-28 > 100 µM | UACC-257 > 100 µM | MOLT-4 42.4 µM | NCI-H23 > 100 µM | NCI-H522 > 100 µM | HOP-92 > 100 µM | CCRF-CEM > 100 µM | SNB-19 > 100 µM | PC-3 > 100 µM | A549 55.8 µM | UO-31 25.7 µM | M14 > 100 µM

O=[N+]([O-])c1cccnc1-n1cnc2ccccc21
inactive: NCI/ADR-RES > 100 µM | SK-OV-3 > 100 µM | COLO 205 > 100 µM | OVCAR-8 > 100 µM | MDA-MB-231 > 100 µM | RXF 393 > 100 µM | SK-MEL-28 > 100 µM | UACC-257 > 100 µM | MOLT-4 > 100 µM | HOP-92 > 100 µM | CCRF-CEM > 100 µM | OVCAR-3 54.6 µM | SF-295 > 100 µM | PC-3 > 100 µM | A549 > 100 µM | M14 > 100 µM

O=C(CSCC(=O)N/N=C\c1cccc(Br)c1)N/N=C\c1cccc(Br)c1
inactive: NCI/ADR-RES 15.9 µM | SK-OV-3 20.1 µM | COLO 205 34 µM | OVCAR-8 15.3 µM | MDA-MB-231 12.7 µM | RXF 393 20.3 µM | SK-MEL-28 18.8 µM | UACC-257 14.1 µM | MOLT-4 21.3 µM | NCI-H23 14.6 µM | NCI-H522 17 µM | HOP-92 18.9 µM | SNB-19 46.5 µM | OVCAR-3 13.4 µM | SF-295 14.9 µM | PC-3 14.5 µM | A549 14.1 µM | UO-31 15.5 µM | M14 20 µM
